In US20090023687A1, “Method for Controlling Phytopathogenic Organisms” (SYNGENTA CROP PROTECTION, INC., priority 2005, published 2009):

Legend:
Type in all cases: in vivo
Phakopsora pachyrhizi [1] = assay: Leaf disc test with Phakopsora pachyrhizi on glyphosate resistant soybean (Example 1)
Excerpt: (§1) A synergistic effect exists whenever the action of an active ingredient combination is greater than the action expected from the effect of the individual components.
(§2) The action to be expected (E) for a given active ingredient combination obeys the so-called COLBY formula and can be calculated as follows (COLBY, S. R. “Calculating synergistic and antagonistic responses of herbicide combination”. Weeds, Vol. 15, pages 20-22; 1967):
(§3) ppm=milligrams of active ingredient (=a.i.) per litre of spray mixture X=% action by active ingredient I using p ppm of active ingredient Y=% action by active ingredient II using q ppm of active ingredient.
(§4) According to Colby, the expected (additive) action of active ingredients I+II using p+q ppm of active ingredient is
(§5) If the action actually observed (O) is greater than the expected action (E), then the action of the combination is superadditive, i.e. there is a synergistic effect.
A series of leaf disc tests were conducted to show the effects of tank mixtures of glyphosate and fungicides on Asian soybean rust. The soybean variety tested was NK Brand S40-R9 glyphosate resistant soybean. The leaf source for the testing was the first trifoliate leaf. Six (6) repetitions for each formulation and at each rate were conducted. Treatment of the leaf with the recited active ingredients was conducted 29 days after planting. The leaves were inoculated with Phakopsora pachyrhizi (Asian soybean rust (ASR)) one (1) day after treatment. Evaluation of the leaf was conducted ten (10) days after inoculation and the mean percent infestation of the six trials is reported in Table 1.
The glyphosate source was Zapp® QI herbicide (Syngenta Corp.), containing the potassium salt of glyphosate as well as an adjuvant system. The fungicide used was Priori® Xtra (Syngenta Corp.), which is a suspension concentrate containing 200 g/L of azoxystrobin (AZ) and 80 g/L of cyproconazole (CCZ). The rates of the active ingredients used in the tests are set forth in the Table as mg active ingredient (a.i.)/L.

Phakopsora pachyrhizi [2] = assay: whole plant or invertebrate; conditions: in Glycine max, foliar, read-out: % activity observed
Excerpt: as §1, §2, §3, §4, §5
A series of leaf disc tests were conducted to show the effects of tank mixtures of glyphosate and the ortho-substituted phenyl-amide (OPA) fungicides represented by structures F-5 and F-9 on Asian soybean rust. The soybean variety tested was brand Williams82 glyphosate sensitive soybean. The leaf source for the testing was the first trifoliate leaf. Six (6) repetitions for each formulation and at each rate were conducted. Treatment of the leaf with the recited active ingredients was conducted 4 weeks after planting. The leaves were inoculated with Phakopsora pachyrhizi (Asian soybean rust (ASR)) one (1) day after treatment. Evaluation of the leaf was conducted ten (10) days after inoculation and the mean percent infestation of the six repetitions is reported in Tables 3 and 4.
The glyphosate source was Touchdown® HiTech herbicide (Syngenta Corp.), containing the potassium salt of glyphosate and no adjuvant system. The compound OPA F-5 used was a compound of formula F-5, wherein the ratio of racemic compounds of formula F-3 (syn) to racemic compounds of formula F-4 (anti) was 9:1. The compound OPA F-9 used was a compound of formula F-9, wherein the ratio of racemic compounds of formula F-7 (trans) to racemic compounds of formula F-8 (cis) was around 100:1. The fungicides used were EC100 formulations of OPA F-5 and OPA F-9 which are emulsion concentrates containing 100 ga.i./L. The rates of the active ingredients used in the tests are set in the table as mg active ingredient (a.i.)/L.

Phakopsora pachyrhizi [3] = assay: Application on whole plants: leaf disc test with Phakopsora pachyrhizi on glyphosate tolerant soybean (Example 6)
Excerpt: as §1, §2, §3, §4, §5
Leaf disc tests were conducted to show the effects of tank mixtures of glyphosate and pesticides or plant activators on Asian soybean rust. The soybean variety tested was brand S40-R9 glyphosate tolerant soybean. The leaf source for the testing was the first trifoliate leaf. Six (6) repetitions for each formulation and at each rate were conducted. […] were cut and inoculated with Phakopsora pachyrhizi (Asian soybean rust (ASR)) one (1) day after treatment. Evaluation of the leaf was conducted ten (10) days after inoculation and the mean percent infestation of the six repetitions is reported in Tables 15-17.
As glyphosate source Touchdown® HiTech or Zapp® QI was used. The fungicides were used as commercial formulations: Bravo® SC500 fungicide comprising chlorothalonil (Syngenta Corp.), Score® EC250 fungicide comprising difenaconazole (Syngenta Corp.) and Mancozeb 80WP fungicide comprising mancozeb. The rates of the active ingredients used in the tests are set in Tables 15-17 as g active ingredient (a.i.)/hectare (ha). The spray volume was 200 l/ha.

Puccinia recondita = assay: Greenhouse trial with Puccinia recondita on glyphosate sensitive wheat (Example 3); conditions: read-out: % activity observed
Excerpt: as §1, §2, §3, §4, §5
Greenhouse tests were conducted to show the effects of tank mixtures of glyphosate and the ortho-substituted phenyl-amide (OPA) fungicides represented by structures F-10, F-5 and F-9 on cereal rust Puccinia recondita. The wheat variety tested was brand Kanzler glyphosate sensitive wheat. Three (3) repetitions for each formulation and at each rate were conducted. Treatment of the plants with the recited active ingredients was conducted preventatively 16 days after planting. The leaves were inoculated with Puccinia recondita one (1) day after treatment. Evaluation of the leaf was conducted […] after inoculation and the mean percent infestation of the three repetitions is reported in Tables 5-7.
The glyphosate source was Zapp® QI herbicide containing the potassium salt of glyphosate as well as an adjuvant system. The compound OPA F-5 used was a compound of formula F-5, wherein the ratio of racemic compounds of formula F-3 (syn) to racemic compounds of formula F-4 (anti) was 9:1. The compound OPA F-9 used was a compound of formula F-9, wherein the ratio of racemic compounds of formula F-7 (trans) to racemic compounds of formula F-8 (cis) was around 100:1. The fungicides used were EC 100 formulations of OPA F-10, OPA F-5 and OPA F-9 which are emulsion concentrates containing 100 ga.i./L. The rates of the active ingredients used in the tests are set in Tables 5-7 as mg active ingredient (a.i.)/L.

[4] = Glyphosate TD HiTech SL523 500 g a.i./ha, Tables 15, 17 (check 60)
[5] = Glyphosate TD HiTech SL523 1500 g a.i./ha, Table 16 (check 49)
[6] = Glyphosate TD HiTech SL523 1500 g a.i./ha, Tables 15, 17 (check 60)

SMILES: O=C(O)CNCP(=O)(O)O [Glyphosate, glyphosate]
- % Leaf attack (Phakopsora pachyrhizi [1]; Glyphosate 0.1 mg a.i./L (Zapp QI)): 90%
- % Leaf attack (Phakopsora pachyrhizi [1]; Glyphosate 0.39 mg a.i./L (Zapp QI)): 90%
- % Leaf attack (Phakopsora pachyrhizi [1]; Glyphosate 1.56 mg a.i./L (Zapp QI)): 100%
- % Leaf attack (Phakopsora pachyrhizi [1]; Glyphosate 6.25 mg a.i./L (Zapp QI)): 100%
- % Leaf attack (Phakopsora pachyrhizi [1]; Glyphosate 25 mg a.i./L (Zapp QI)): 100%
- % Leaf attack (Phakopsora pachyrhizi [1]; Glyphosate 100 mg a.i./L (Zapp QI)): 100%
- inhibition at 0.1 µg/mL (Phakopsora pachyrhizi [1]; Phakopsora pachyrhizi, foliar, Glyphosate 0.1 mg a.i./L (Zapp QI), read-out: % Activity observed): 6%
- inhibition at 0.39 µg/mL (Phakopsora pachyrhizi [1]; Phakopsora pachyrhizi, foliar, Glyphosate 0.39 mg a.i./L (Zapp QI), read-out: % Activity observed): 6%
- inhibition at 1.56 µg/mL (Phakopsora pachyrhizi [1]; Phakopsora pachyrhizi, foliar, Glyphosate 1.56 mg a.i./L (Zapp QI), read-out: % Activity observed): 0%
- inhibition at 6.25 µg/mL (Phakopsora pachyrhizi [1]; Phakopsora pachyrhizi, foliar, Glyphosate 6.25 mg a.i./L (Zapp QI), read-out: % Activity observed): 0%
- inhibition at 25 µg/mL (Phakopsora pachyrhizi [1]; Phakopsora pachyrhizi, foliar, Glyphosate 25 mg a.i./L (Zapp QI), read-out: % Activity observed): 0%
- inhibition at 100 µg/mL (Phakopsora pachyrhizi [1]; Phakopsora pachyrhizi, foliar, Glyphosate 100 mg a.i./L (Zapp QI), read-out: % Activity observed): 0%
- inhibition at 2.5 µg/mL (Phakopsora pachyrhizi [2]; Glyphosate 2.5 mg a.i./L (Touchdown HiTech)): 0%
- inhibition at 7.4 µg/mL (Phakopsora pachyrhizi [2]; Glyphosate 7.4 mg a.i./L (Touchdown HiTech)): 0%
- inhibition at 22.2 µg/mL (Phakopsora pachyrhizi [2]; Glyphosate 22.2 mg a.i./L (Touchdown HiTech)): 14%
- inhibition at 66.7 µg/mL (Phakopsora pachyrhizi [2]; Glyphosate 66.7 mg a.i./L (Touchdown HiTech)): 0%
- inhibition at 200 µg/mL (Phakopsora pachyrhizi [2]; Glyphosate 200.0 mg a.i./L (Touchdown HiTech)): 0%
- inhibition at 600 µg/mL (Phakopsora pachyrhizi [2]; Glyphosate 600 mg a.i./L (Touchdown HiTech)): 34%
- Activity observed % (Phakopsora pachyrhizi [3]; [4]): 0%
- Leaf attack % (Phakopsora pachyrhizi [3]; [4]): 68%
- Activity observed % (Phakopsora pachyrhizi [3]; [5]): 44%
- Leaf attack % (Phakopsora pachyrhizi [3]; [5]): 28%
- Activity observed % (Phakopsora pachyrhizi [3]; [6]): 17%
- Leaf attack % (Phakopsora pachyrhizi [3]; [6]): 50%
- inhibition at 66 µg/mL (Puccinia recondita; Glyphosate 66 mg a.i./L (Zapp QI)): 0%
- inhibition at 200 µg/mL (Puccinia recondita; Glyphosate 200 mg a.i./L (Zapp QI)): 42%
